{
  "source": "patent US20190191740A1",
  "about": "“Methods to Promote Growth and Improve Feed Conversion in Animals” (Nutrivert LLC, priority 2016, published 2019)",
  "key": {"broiler chickens [1]": {"tested_on": "broiler chickens", "assay": "Broiler chicken feed conversion experiment (Example 1, with microbiome seed chickens)", "type": "in vivo, chickens (male Ross×Ross)", "conditions": "for feed conversion (total consumed feed / total weight gain): days 0 through day 32", "protocol": "The primary objective of this experiment was to evaluate if supplementation of feed with mifamurtide at 1.9 mg/kg feed improves feed conversion in broiler chickens, i.e., if broiler chickens require less feed for the same amount of gain in body weight. A secondary objective was to evaluate whether any such improvement compares favorably or unfavorably to improvement seen with bacitracin, an industry standard AGP. A third objective was to evaluate if fast versus slow acquisition of a healthy microbial flora (microbiome) by the experimental chickens influenced feed conversion. A fourth objective was to determine whether feed supplementation with bacitracin, a commonly used industry-standard antibiotic growth promoter, interacted with a potential influence of microbiome acquisition kinetics on feed conversion.\nTwo hundred day-of-hatch male Ross×Ross chicks were randomly assigned at 50 each to one of four groups: 1 negative control without microbiome seed chickens; 2 negative control with microbiome seed chickens; 3 bacitracin at 50 mg/kg of feed with microbiome seed chickens; or 4 mifamurtide at 1.9 mg/kg of feed with microbiome seed chickens. The mifamurtide was first mixed with 20 g Lactose (Lactochem Fine Powder, DFE Pharma, Germany), then mixed with corn meal to produce a 2% supplement to prepare the feed, which was fed to the birds ad libitum.\nThe microbiome seed chickens were healthy 21-day-old birds that had been raised on litter of fresh unused pine shavings, and had not been in contact with any other chickens, and thus had microbiomes characteristic of healthy grown birds. At start of the experiment, groups 2-4 of 50 study chicks were exposed to 10 microbiome seed chickens, which were removed on day 5 and were not counted in study results. The objective of the microbiome seed chickens was to rapidly induce a healthy microbiome in the freshly hatched experimental chickens. In contrast, the development of a normal healthy microbiome required more time in the control group without exposure to microbiome seed chickens.\nAll chicks were reared with a normal broiler starter in mash form, supplemented with amprolium at 113.5 mg/kg. Each group was raised in 5×10 feet floor pens at a stocking density of 1.0 square foot per bird on fresh pine shavings, in a solid-sided barn, with concrete floors, and under ambient humidity. Feed and water were available ad libitum throughout the trial. Thermostatically controlled gas heaters were the primary heat source for the barn, if needed. One heat lamp per pen provided supplemental heat during brooding. Fans were used to cool birds. […] Individual body weights of all birds were recorded on days 8, 21, and 32. […]\nThe overall (true) feed conversion for each group was determined by dividing total consumed feed by total weight gains of all chickens of the group. […] Calculated feed consumed by birds that died before termination of the experiment was subtracted from total weighed feed. Body weight gain and calculated feed consumption data were analyzed by one-way ANOVA and Tukey Honest True Difference correction for multiple comparisons, and graphs show means±95% confidence intervals. For determination of feed conversion of individual birds, calculated total feed consumption per bird was divided by total weight gain of the bird. […] Group differences in feed conversion were evaluated by non-parametric Mann Whitney U test, and error bars indicate 25-75 percentiles of calculated feed conversions of individual birds. […]"}, "broiler chickens [2]": {"tested_on": "broiler chickens", "assay": "Broiler chicken growth and feed conversion experiment (Example 2, without microbiome seed chickens)", "type": "in vivo, chickens (male Cobb×Cobb)", "conditions": "for growth rate (percent body weight gain) / increased growth over the 236.2% rate of untreated control chickens: day 15 to 32; for feed conversion relative to untreated control chickens: no microbiome seed chickens", "protocol": "The objective of the experiment was to compare the effect of 1) a low dose of 0.1 mg mifamurtide/kg feed; and 2) an intermediate dose of 0.57 mg romurtide/kg feed, a different MDP analog, to 50 mg bacitracin/kg feed and non-supplemented feed (untreated control chickens). Both the effect on feed conversion and on growth rates, i. e. the dual criteria for growth promotion, were examined.\nTwo-hundred day-of-hatch male Cobb×Cobb chickens were randomly assigned at 50 each to one of four groups: no feed supplementation; bacitracin at 50 mg/kg of feed; mifamurtide at 0.1 mg/kg of feed; or romurtide at 0.57 mg/kg of feed. Microbiome seed chickens were not used, and individual body weights of all birds were recorded on days 15 and 32. All other experimental parameters followed Example 1."}, "pigs": {"tested_on": "pigs", "assay": "Pig feed conversion experiment (Example 3)", "type": "in vivo", "conditions": "for feed conversion (total consumed feed / total weight gain): day 0 through day 26", "protocol": "The objective of the experiment for Example 3 was to evaluate if MDP analogs promote growth in mammals as they do in birds. Pigs were selected as an animal model for the mammalian study. This experiment was designed to contrast the effect of a low dose of 0.1 mg mifamurtide/kg feed on growth and feed conversion to untreated control pigs and to pigs treated with 50 mg carbadox/kg feed, an industry-standard AGP used in pigs.\nPigs were weaned at 3-4 weeks of age and allotted based on weight and gender to one of 15 nursery pens with 6 pigs per pen (90 total pigs). Sex of the pigs was balanced within pens in a weight block. Dietary treatments were randomly assigned within weight blocks to pens of pigs. Three dietary treatments were administered in the phase 1 and 2 diets. Phase 1 diets were fed from day 0-14 post-weaning. On day 14 post-weaning, pigs were switched to phase 2 diets, which were fed until day […]. Treatment 1 was the untreated negative control diet without any growth-promoting supplement. […] Feed intake was monitored for each pen and weigh period. […]\nThe overall (true) feed conversion for each group was determined by dividing total consumed feed by total weight gains of all pigs of each treatment. […] Body weight gain and calculated feed consumption data were analyzed by one-way ANOVA and Tukey Honest True Difference correction for multiple comparisons. For determination of feed conversion of individual pigs, calculated total feed consumption of each pig was divided by total measured weight gain of the pig. […] Group differences in feed conversion were evaluated by non-parametric Mann Whitney U test.\nIndividual daily feed consumption per pig was computed by a mathematical model from individual body weights determined over the course of the 26-day experiment, and from total weighed feed consumed by each pen. […] The model first linearly interpolates body weights between the actual measured body weights of the pigs. Based on the calculated daily body weight, the daily feed consumption is then calculated as 4% of body weight. […]"}},
  "note": "Bridge positions count the residues as written; N and C are the ends. Square brackets hold non-standard residues; d marks the D form. Peptide text beside a SMILES is read from it. * marks the point of attachment. Ileψ(thiazoline)Cys = CC[C@H](C)[C@H](N)C1=N[C@H](C(=O)*)CS1; dOrn = NCCC[C@@H](N)C(=O)O",
  "data": [
    {"compound": "CC[C@H](C)[C@H](N)C1=N[C@H](C(=O)N[C@@H](CC(C)C)C(=O)N[C@H](CCC(=O)O)C(=O)N[C@H](C(=O)N[C@H]2CCCCNC(=O)[C@H](CC(N)=O)NC(=O)[C@@H](CC(=O)O)NC(=O)[C@H](Cc3cnc[nH]3)NC(=O)[C@@H](Cc3ccccc3)NC(=O)[C@H]([C@@H](C)CC)NC(=O)[C@@H](CCCN)NC2=O)[C@@H](C)CC)CS1", "note": "[bacitracin] ({Ileψ(thiazoline)Cys}-L[dE]IK[dOrn]I[dF]H[dD]N; lactam 4-C)", "values": [
      {"measurement": "improvement in feed conversion over non-microbiome seeded untreated chickens", "setting": "broiler chickens [1]; 50 mg/kg bacitracin treated, microbiome-seeded chickens", "value": 15.6, "unit": "%"},
      {"measurement": "more feed required than mifamurtide supplementation (1.9 mg/kg feed) for the same amount of weight gain", "setting": "broiler chickens [1]; bacitracin at 50 mg/kg feed, with microbiome seed chickens, days 0-32", "value": 13.6, "unit": "%"},
      {"measurement": "feed conversion (total consumed feed / total weight gain)", "setting": "broiler chickens [1]; bacitracin at 50 mg/kg feed, with microbiome seed chickens", "value": 1.823},
      {"measurement": "body weights on days 15 and 32, body weight gains and feed intake versus the three other treatments", "setting": "broiler chickens [2]; bacitracin at 50 mg/kg feed", "value": "significantly lower"},
      {"measurement": "feed conversion rates versus the three other treatments", "setting": "broiler chickens [2]; bacitracin at 50 mg/kg feed", "value": "higher feed conversion rates"},
      {"measurement": "effect on growth and feed conversion", "setting": "broiler chickens [2]; bacitracin at 50 mg/kg feed, optimal husbandry, absence of a pathogenic microflora", "value": "profoundly negative effect"}
    ]},
    {"compound": "COC(=O)N/N=C/c1c[n+]([O-])c2ccccc2[n+]1[O-]", "note": "[carbadox]", "values": [
      {"measurement": "more feed required for the same amount of weight gain than treatment with 0.1 mg/kg feed mifamurtide", "setting": "pigs; carbadox 50 mg/kg feed until day 14, 25 mg/kg feed after day 14", "value": 14.6, "unit": "%"},
      {"measurement": "feed conversion (total consumed feed / total weight gain)", "setting": "pigs; carbadox 50 mg/kg feed until day 14, 25 mg/kg feed after day 14, weaned pigs", "value": 1.692}
    ]},
    {"compound": "CCCCCCCCCCCCCCCCCC(=O)NCCCC[C@H](NC(=O)CC[C@@H](NC(=O)[C@H](C)NC(=O)[C@@H](C)O[C@H]1[C@H](O)[C@@H](CO)OC(O)[C@@H]1NC(C)=O)C(N)=O)C(=O)O", "note": "(some centres unmarked) [romurtide]", "values": [
      {"measurement": "growth rate (percent body weight gain)", "setting": "broiler chickens [2]; romurtide at 0.57 mg/kg feed", "value": 267.4, "unit": "%"},
      {"measurement": "increased growth over the 236.2% rate of untreated control chickens", "setting": "broiler chickens [2]; romurtide at 0.57 mg/kg feed", "value": 13.2, "unit": "%"},
      {"measurement": "feed conversion relative to untreated control chickens", "setting": "broiler chickens [2]; romurtide at 0.57 mg/kg feed, optimal husbandry", "value": "did not decrease feed conversion"}
    ]},
    {"compound": "mifamurtide", "values": [
      {"measurement": "feed conversion (total consumed feed / total weight gain)", "setting": "broiler chickens [1]; 1.9 mg mifamurtide/kg feed, with microbiome seed chickens", "value": 1.605, "unit": "g feed/g body weight gain"},
      {"measurement": "total feed consumed per chicken versus negative controls", "setting": "broiler chickens [1]; mifamurtide 1.9 mg/kg feed, day 0 through day 32 (FIG. 1B)", "value": "consumed less feed"},
      {"measurement": "feed conversion (total consumed feed / total weight gain)", "setting": "pigs; 0.1 mg mifamurtide/kg feed, weaned pigs", "value": 1.476},
      {"measurement": "growth rate (percent body weight gain)", "setting": "broiler chickens [2]; mifamurtide at 0.1 mg/kg feed", "value": 259.5, "unit": "%"},
      {"measurement": "increased growth over the 236.2% rate of untreated control chickens", "setting": "broiler chickens [2]; mifamurtide at 0.1 mg/kg feed", "value": 9.9, "unit": "%"},
      {"measurement": "feed conversion relative to untreated control chickens", "setting": "broiler chickens [2]; mifamurtide at 0.1 mg/kg feed, optimal husbandry", "value": "did not decrease feed conversion"}
    ]}
  ]
}
